Data: patent US20160045625A1, “[11C] AND [18F] LABELED 1,3-DIPHENYL-5-(PYRIMIDIN-2-YL)-PYRIDIN-2(1H)-ONE DERIVATIVES AND THEIR USE FOR PET IMAGING OF THE AMPA RECEPTOR” (EISAI R&D MANAGEMENT CO., LTD., priority 2013, published 2016)

Tests used:
AMPA receptor [1] = conditions: in vivo PET, rat; cited from earlier work
AMPA receptor [2] = experiment: In vitro receptor binding assay ([^3H]perampanel, Ki value measurement); set-up: species or system rat (Sprague-Dawley); conditions: rat forebrain membranes, 90 min at 4° C., Scatchard analysis
Procedure: Homogenate of forebrains of rats (Sprague-Dawley) was prepared in ice-cold solution containing 0.32 M sucrose and 0.1 mM EGTA (pH 7.4). Homogenate was centrifuged in 1000 g for 10 min and supernatant was collected. This supernatant was centrifuged in 30000 g for 20 min. Precipitate was suspended in 1 mM EGTA/Tris buffer (pH 8.0) by sonication, subjected osmotic lysis on ice for 10 min and centrifuged in 30000 g for 20 min. This procedure was conducted twice. Precipitate was suspended in 50 mM Tris HCl buffer (pH 7.4) by sonication and centrifuged in 30000 g for 20 min. This procedure was conducted three times. Precipitate was suspended in 50 mM Tris HCl buffer (pH 7.4) by sonication and stocked at −80° C. On the day of binding assay, stocked solution was suspended in 50 mM Tris HCl buffer (pH 7.4) by sonication and centrifuged in 30000 g for 20 min. This procedure was conducted three times. Precipitate was suspended in 50 mM Tris-HCl buffer (pH 7.4) by sonication and used for binding assay.
Receptor solution was re-suspended in binding buffer (50 mM Tris-HCl, pH 7.4) to a final concentration of 0.24 mg tissue eq./assay. The incubation time for [^3H]perampanel on AMPA receptor was 90 min at 4° C. After incubation, membranes were filtered onto GF/B filter presoaked with 0.3% PEI and washed three times with ice-cold wash buffer (same as binding buffer). Each filter was placed in a vial and 6 mL of liquid scintillator reagent (Hionic-Fluor; PerkinElmer Life & Analytical Sciences) were added. Radioactivity was counted (1 min) in a liquid scintillation counter (LSC-6100, Hitachi Aloka Medical, Ltd.).
Saturation isotherms were determined by addition of various concentrations of [^3H]perampanel (1-2000 nM). Nonspecific bindings for [^3H]perampanel was measured in the presence of 15 μM unlabeled compounds. Ki value was calculated by Scatchard analysis of saturation isotherm experiment.

AMPA receptor [3] = experiment: In vivo PET blocking study in monkey; set-up: species or system Rhesus monkey; conditions: i.v. pretreatment 0.02 to 0.1 mg/kg, 15 min prior to radioligand (Example 4); CTX, HIP, CER, THA, STR
Procedure: FIG. 4. Rhesus monkey PET blocking study of the compound of Example 4. In vivo area under time-radioactivity curves of to the region of interests (CTX, HIP, cerebellum (CER), thalamus (THA), striatum (STR)) in the absence (control) and blockade by pretreatment with the unlabeled compound. Radioactivity is expressed as percentage of standardized uptake value (% SUV) and integrated radioactivity of the specific binding versus reference region (brain stem; BS) from 0 to 40 min during the PET scan.
For the PET blocking study, unlabeled compound (Reference Example 9, 0.1 mg/kg/5 mL to 0.02 mg/kg/5 mL of saline with 10% DMSO, 3 doses) was intravenously administrated via the crural vein as a single slow bolus over 10 min, 15 min prior to radioligand administration. All PET scans were acquired from the same two monkeys (n=2).
Area under time-radioactivity curves of to the region of interests (CTX, HIP, cerebellum (CER), thalamus (THA), STR) in the absence (control) and blockade by pretreatment with Reference Example 9. Radioactivity is expressed as percentage of standardized uptake value (% SUV) and integrated radioactivity from 0 to 40 min during the PET scan.

| Ki (AMPA receptor [2]) [nM] | SMILES | clearance from the CNS (AMPA receptor [1]) | specific binding (AMPA receptor [1]) | radioactivity (area under time-radioactivity curves, % SUV, 0 to 40 min) compared to control (AMPA receptor [3]) |
| --- | --- | --- | --- | --- |
|  | COc1cc2c(cc1O[11CH3])C(c1ccc(Cl)cc1)N(C(C)=O)CC2 (stereo not shown) [N-acetyl-1-(4-chlorophenyl)-6-methoxy-7-[^11C]methoxy-1,2,3,4-tetrahydroisoquinoline] | rapid clearance from the CNS | low specific binding |  |
| 10 | CNc1cccc(-n2cc(-c3ncccn3)cc(-c3ccccc3C#N)c2=O)c1 [Reference Example 9, 2-(1-(3-(methylamino)phenyl)-2-oxo-5-(pyrimidin-2-yl)-1,2-dihydropyridin-3-yl)benzonitrile] |  |  | markedly reduced the radioactivity in dose dependent manner |
| 20 | N#Cc1ccccc1-c1cc(-c2ncccn2)cn(-c2cccc(F)c2)c1=O [Reference Example 15, 2-(1-(3-fluorophenyl)-2-oxo-5-(pyrimidin-2-yl)-1,2-dihydropyridin-3-yl)benzonitrile] |  |  |  |
| 5 | N#Cc1ccccc1-c1cc(-c2ncccn2)cn(-c2ccc(F)c(N)c2)c1=O [Reference Example 19, 2-(1-(3-amino-4-fluorophenyl)-2-oxo-5-(pyrimidin-2-yl)-1,2-dihydropyridin-3-yl)benzonitrile] |  |  |  |
| 22 | O=c1c(-c2ccccc2F)cc(-c2ncccn2)cn1-c1cccc(CF)c1 [Reference Example 22, 3-(2-fluorophenyl)-1-(3-(fluoromethyl)phenyl)-5-(pyrimidin-2-yl)pyridin-2(1H)-one] |  |  |  |
